Our source for the GI50 and TGI values is PubChem BioAssay (NCI).

Some test systems named below: DU-145 prostate; RPMI-8226 leukemia; MALME-3M melanoma; MDA-MB-435; NCI-H522 lung; IGROV1 ovarian; LOX IMVI melanoma; SNB-75 CNS; A498 renal; NCI-H226 lung.
Holding throughout (experiment): inhibition of tumour cell growth, NCI panel, 48 h

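All cell lines were grown in 96-well plates and treated with compound for 48 hours. The concentration for 50% growth inhibition is given as GI50. TGI: concentration producing complete growth inhibition.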

For the compound `CCN1C(=O)CCCc2c1ccc(Nc1ncc(Cl)c(NC3[C@@H](C(N)=O)[C@@H]4C=C[C@H]3C4)n1)c2OC` (stereo not given in full), the GI50 with DU-145 prostate was 1.81 µM; in the experiment on RPMI-8226 leukemia, 976 nM; with MALME-3M melanoma it was 0.998 µM; with MDA-MB-435, 917 nM; in the experiment on NCI-H522 lung it was 1160 nM; in the experiment with IGROV1 ovarian it was 1460 nM. Also, the GI50 with LOX IMVI melanoma was 774 nM; with SNB-75 CNS it was 0.619 µM; in the experiment with A498 renal it was 529 nM; in the experiment on NCI-H226 lung, 1560 nM. In addition, the TGI came out at 14.6 µM with DU-145 prostate; 4.26 µM in the experiment with RPMI-8226 leukemia; 3.4 µM with MALME-3M melanoma; 9.85 µM in the experiment on MDA-MB-435; 6.13 µM in the experiment with NCI-H522 lung; 3.96 µM with IGROV1 ovarian. Moreover, the TGI came to 2.48 µM in the experiment with LOX IMVI melanoma, 6.23 µM in the experiment with SNB-75 CNS, 2.65 µM with A498 renal and 12.7 µM with NCI-H226 lung.
For the compound `COc1cc2c(cc1OC)C(Sc1ccc(SC)cc1)c1c(nc(N)c(C#N)c1N)O2` (stereo not given), the GI50 is 1.75 µM with DU-145 prostate; 2540 nM in the experiment with RPMI-8226 leukemia; 1.85 µM in the experiment on MALME-3M melanoma; 1750 nM with MDA-MB-435; 1640 nM with NCI-H522 lung; 1230 nM with IGROV1 ovarian. For the same compound, the GI50 in the experiment with LOX IMVI melanoma is 1280 nM; with SNB-75 CNS it was 1.54 µM; in the experiment on A498 renal, 1610 nM; with NCI-H226 lung, 1640 nM. Besides, the TGI in the experiment with DU-145 prostate amounted to 3.17 µM; in the experiment on RPMI-8226 leukemia it was 6.46 µM; with MALME-3M melanoma, 3.35 µM; with MDA-MB-435, 3.23 µM; in the experiment with NCI-H522 lung, 3.03 µM; in the experiment on IGROV1 ovarian it was 3.24 µM. Besides, the TGI with LOX IMVI melanoma turned out to be 2.55 µM; in the experiment with SNB-75 CNS, 3.16 µM; in the experiment on A498 renal it was 3.28 µM; with NCI-H226 lung, 3.04 µM.
For `COc1cccc(CSCC(=O)O)c1`, the TGI in the experiment with DU-145 prostate, in the experiment on RPMI-8226 leukemia, in the experiment with MALME-3M melanoma, in the experiment on MDA-MB-435, in the experiment on NCI-H522 lung and in the experiment on IGROV1 ovarian was over 100 µM in each case. In addition, the TGI with LOX IMVI melanoma, with SNB-75 CNS, with A498 renal and with NCI-H226 lung was over 100 µM each time.
As to `Cc1cc2cc3ccc(N(C)C)cc3nc2cc1N`, the GI50 was 0.437 µM with DU-145 prostate; 637 nM in the experiment on RPMI-8226 leukemia; 0.929 µM in the experiment on MALME-3M melanoma; 703 nM with MDA-MB-435; 612 nM with NCI-H522 lung; 528 nM in the experiment on IGROV1 ovarian. For the same compound, the GI50 is 325 nM in the experiment with LOX IMVI melanoma, 1.04 µM in the experiment with SNB-75 CNS, 433 nM in the experiment on A498 renal and 584 nM in the experiment on NCI-H226 lung. Moreover, the TGI in the experiment on DU-145 prostate worked out at 2.45 µM; in the experiment with RPMI-8226 leukemia it was 5.55 µM; with MALME-3M melanoma, 3.42 µM; in the experiment with MDA-MB-435, 2.28 µM; in the experiment with NCI-H522 lung it was 2.4 µM; in the experiment with IGROV1 ovarian it was 2.9 µM. The TGI with LOX IMVI melanoma was determined as 5.01 µM; with SNB-75 CNS, 2.3 µM; in the experiment on A498 renal, 2.05 µM; in the experiment on NCI-H226 lung, 3.6 µM.
As to `O=C1C2=C(c3ccccc31)C(c1ccccc1)N1C(=O)CSC1=N2` (stereo not given), the TGI is over 100 µM in the experiment with DU-145 prostate; over 100 µM in the experiment with RPMI-8226 leukemia; over 100 µM with MALME-3M melanoma; 37.3 µM with MDA-MB-435; over 79.8 µM in the experiment on NCI-H522 lung; over 100 µM with IGROV1 ovarian. The TGI in the experiment with LOX IMVI melanoma is over 100 µM; in the experiment on SNB-75 CNS, 67.7 µM; in the experiment on A498 renal, over 100 µM; with NCI-H226 lung, over 100 µM.
In the case of `COc1ccc2c(c1)CC[C@@H]1[C@@H]2CC[C@]2(C)[C@@H](NC(=O)/C=C/c3ccc(O)c(O)c3)CC[C@@H]12`, the GI50 was 12.6 µM in the experiment with DU-145 prostate; 1080 nM in the experiment with RPMI-8226 leukemia; 11.2 µM with MALME-3M melanoma; 3430 nM in the experiment with MDA-MB-435; 1680 nM in the experiment on NCI-H522 lung; 1980 nM in the experiment on IGROV1 ovarian. Moreover, the GI50 with LOX IMVI melanoma is 3150 nM; in the experiment with SNB-75 CNS, 21.9 µM; in the experiment on A498 renal, 14300 nM; with NCI-H226 lung it was 2340 nM. Also, the TGI in the experiment with DU-145 prostate amounted to 30.4 µM; in the experiment on RPMI-8226 leukemia, 9.79 µM; in the experiment with MALME-3M melanoma, 25.9 µM; in the experiment on MDA-MB-435, 11.1 µM; with NCI-H522 lung, 5.73 µM; with IGROV1 ovarian, 12 µM. Besides, the TGI was 13.7 µM in the experiment with LOX IMVI melanoma, over 100 µM with SNB-75 CNS, 31.1 µM with A498 renal and 6.45 µM in the experiment on NCI-H226 lung.
As for `S=C(Nc1ccc(N=Nc2ccccc2)cc1)SCc1ccccc1`, the TGI was 29.6 µM in the experiment with DU-145 prostate; 33.3 µM in the experiment with RPMI-8226 leukemia; 22.9 µM in the experiment on MALME-3M melanoma; 36.4 µM in the experiment with MDA-MB-435; 36.2 µM with NCI-H522 lung; 32.6 µM in the experiment on IGROV1 ovarian. Besides, the TGI in the experiment on LOX IMVI melanoma came out at 38.5 µM; with SNB-75 CNS it was 44.2 µM; in the experiment with A498 renal, 43.7 µM; in the experiment on NCI-H226 lung it was 39 µM.
For the compound `CCCCCCNC(=O)Oc1ccc(/C(=C(/C)Cc2ccc(OC)cc2)c2ccc(OCCCN(C)C)cc2)cc1`, the GI50 was 16.8 µM in the experiment with DU-145 prostate; 15900 nM in the experiment with RPMI-8226 leukemia; 15.3 µM in the experiment with MALME-3M melanoma; 13800 nM in the experiment on MDA-MB-435; 16200 nM with NCI-H522 lung; 16300 nM with IGROV1 ovarian. Moreover, the GI50 is 2610 nM in the experiment on LOX IMVI melanoma, 12.6 µM in the experiment with SNB-75 CNS, 14100 nM in the experiment with A498 renal and 19400 nM in the experiment on NCI-H226 lung. The TGI in the experiment on DU-145 prostate is 31.3 µM; in the experiment on RPMI-8226 leukemia it was 35 µM; with MALME-3M melanoma it was 30.5 µM; with MDA-MB-435, 27.1 µM; with NCI-H522 lung, 31.3 µM; in the experiment with IGROV1 ovarian, 32.7 µM. Besides, the TGI was 15.6 µM in the experiment with LOX IMVI melanoma, 25.6 µM in the experiment on SNB-75 CNS, 27.3 µM in the experiment with A498 renal and 36 µM with NCI-H226 lung.
For `CCOc1cc(Br)c(C(C)NC(=O)c2cccc(OC)c2)cc1OCC` (stereo not given), the GI50 in the experiment with DU-145 prostate is 26.4 µM; in the experiment with RPMI-8226 leukemia, 13900 nM; with MALME-3M melanoma, 9.9 µM; in the experiment on MDA-MB-435 it was 2160 nM; in the experiment on NCI-H522 lung, 6830 nM; in the experiment with IGROV1 ovarian, 22300 nM. Besides, the GI50 in the experiment with LOX IMVI melanoma is 22800 nM; with SNB-75 CNS, 6.04 µM; in the experiment with A498 renal, 866 nM; with NCI-H226 lung it was 21400 nM. Besides, the TGI with DU-145 prostate is over 100 µM; with RPMI-8226 leukemia, over 92.1 µM; with MALME-3M melanoma it was over 89.3 µM; with MDA-MB-435, 6.1 µM; in the experiment on NCI-H522 lung, 54.4 µM; in the experiment with IGROV1 ovarian, over 100 µM. Further, the TGI with LOX IMVI melanoma is over 100 µM; in the experiment on SNB-75 CNS, 51.7 µM; with A498 renal, 25.5 µM; in the experiment with NCI-H226 lung it was over 100 µM.
For `Cc1cc(Nc2nc(-c3cccnc3)nc3ccccc23)n[nH]1`, the GI50 is 10.7 µM in the experiment with DU-145 prostate; over 38500 nM in the experiment with RPMI-8226 leukemia; over 100 µM in the experiment on MALME-3M melanoma; 647 nM with MDA-MB-435; 1690 nM in the experiment with NCI-H522 lung; 1200 nM with IGROV1 ovarian. The GI50 in the experiment on LOX IMVI melanoma is 712 nM; with SNB-75 CNS, 0.3 µM; in the experiment on A498 renal, 183 nM; with NCI-H226 lung, 1390 nM. The TGI in the experiment with DU-145 prostate was over 100 µM; with RPMI-8226 leukemia, over 95.1 µM; with MALME-3M melanoma it was over 100 µM; in the experiment with MDA-MB-435 it was over 100 µM; with NCI-H522 lung it was over 100 µM; with IGROV1 ovarian, over 40.6 µM. Moreover, the TGI is 3.57 µM in the experiment with LOX IMVI melanoma, 2.18 µM in the experiment with SNB-75 CNS, 0.985 µM with A498 renal and over 24.2 µM with NCI-H226 lung.
Regarding `COc1cccc(-c2ccc3c(c2)C2CCN(Cc4ccccc4)C3C2)c1` (stereo not given), the GI50 is 16.4 µM with DU-145 prostate; 4930 nM in the experiment on RPMI-8226 leukemia; 13.4 µM in the experiment on MALME-3M melanoma; 2430 nM with MDA-MB-435; 4540 nM with NCI-H522 lung; 8990 nM in the experiment with IGROV1 ovarian. The GI50 in the experiment with LOX IMVI melanoma is 10200 nM; in the experiment on SNB-75 CNS, 6.69 µM; in the experiment on A498 renal, 3770 nM; with NCI-H226 lung it was 11100 nM. In addition, the TGI with DU-145 prostate came out at 43.9 µM; in the experiment with RPMI-8226 leukemia it was 23.6 µM; in the experiment on MALME-3M melanoma, 30.4 µM; with MDA-MB-435, 7.29 µM; in the experiment on NCI-H522 lung, 20.4 µM; in the experiment on IGROV1 ovarian, 76.6 µM. Also, the TGI was determined as 26.8 µM in the experiment on LOX IMVI melanoma, 27.2 µM in the experiment on SNB-75 CNS, 17.6 µM with A498 renal and 30.4 µM in the experiment on NCI-H226 lung.
